According to patent US20170362228A1, “TETRAHYDRO-PYRIDO[3,4-b]INDOLE ESTROGEN RECEPTOR MODULATORS AND USES THEREOF” (Genentech, Inc., priority 2016, published 2017):
pEC50: −log10 of the molar value. Read-outs that look alike come from different tables or passages of the source.

Assays:
[1] = molecular target: T1, estrogen receptor alpha (ESR1) (Homo sapiens, UniProt P03372); assay: Breast Cancer Cell ERa High Content Fluorescence Imaging Degradation Assay (Example 901); assay type: cell-based; conditions: Table 1a; MCF7 breast cancer cells, 4 hours; plateau of the maximal effect; DMSO and Fulvestrant define 0% and 100% changes in ESR1
T1 construct: endogenous in cells; host or cells: MCF7 breast cancer cells
T1 sequence (P03372 1-595): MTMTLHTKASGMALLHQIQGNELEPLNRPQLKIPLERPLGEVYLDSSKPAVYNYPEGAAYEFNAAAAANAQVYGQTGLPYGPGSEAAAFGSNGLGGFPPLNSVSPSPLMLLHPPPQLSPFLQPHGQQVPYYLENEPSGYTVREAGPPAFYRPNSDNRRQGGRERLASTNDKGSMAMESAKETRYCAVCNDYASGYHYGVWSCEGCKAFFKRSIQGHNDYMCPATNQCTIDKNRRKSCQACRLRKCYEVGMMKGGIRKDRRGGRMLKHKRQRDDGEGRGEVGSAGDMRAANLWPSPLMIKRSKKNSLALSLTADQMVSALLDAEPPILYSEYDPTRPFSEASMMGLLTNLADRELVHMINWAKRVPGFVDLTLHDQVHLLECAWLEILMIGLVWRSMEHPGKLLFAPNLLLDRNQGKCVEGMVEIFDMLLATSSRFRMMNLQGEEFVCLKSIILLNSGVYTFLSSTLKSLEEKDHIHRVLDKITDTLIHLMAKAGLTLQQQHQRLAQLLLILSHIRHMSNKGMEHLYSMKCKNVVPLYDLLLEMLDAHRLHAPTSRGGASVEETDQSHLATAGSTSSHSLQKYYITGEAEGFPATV
Experimental: MCF7 breast cancer cells were seeded on day 1 at a density of 10,000 cells per well in 384 well poly-lysine coated tissue culture plate (Greiner # T-3101-4), in 50 μL/well RPMI (phenol red free), 10% FBS (Charcoal stripped), containing L-glutamine. On day 2, compounds were prepared at 2 compound source concentrations: 100 μM and 1 μM (ultimately to give 2 overlapping titration curves), in a Labcyte low dead volume plate, 10 μL/well, and 10 μL of DMSO in designated wells for backfill, and 5 μM Fulvestrant (control compound) in designated wells. Compounds and controls were dispensed using a Labcyte Echo acoustic dispenser to dispense compounds with a predefined serial dilution (1.8×, 10 point, in duplicate) and appropriate backfill and control compounds (final total volume transferred was 417.5 nL and compound dispense volume ranges from 2.5 nL to 417.5 nL; 0.84% DMSO (v/v) final), ultimately producing a concentration range from 0.05 nM to 835 nM. Cell plates were incubated at 37° C., for 4 hours. Fixation and permeabilization were carried out using a Biotek EL406 plate washer and dispenser as follows. Cells were fixed by addition of 15 μL of 16% paraformaldehyde (Electron Microscopy Sciences #15710-S) directly to the 50 μL cell culture medium in each well using the peristaltic pump 5 μL cassette on a Biotek EL406 (final concentration of formaldehyde was 3.7% w/v). Samples were incubated 30 minutes. Well contents was aspirated and 50 μL/well of Phosphate Buffered Saline (PBS) containing 0.5% w/v bovine serum albumen, 0.5% v/v Triton X-100 (Antibody Dilution Buffer) was added to each well. Samples were incubated for 30 minutes. Well contents were aspirated and washed 3 times with 100 μL/well of PBS. Immunofluorescence staining of estrogen receptor alpha (ESR1) was carried out using a Biotek EL406 plate washer and dispenser as follows. The well supernatant was aspirated from the wells and 25 μL/well of anti-ESR1 mAb (F10) (Santa Cruz sc-8002) diluted 1:1000 in Antibody Dilution Buffer was dispensed. Samples were incubated for 2 hours at room temperature. Samples were washed 4 times with 100 μL/well of PBS. 25 uL/well of secondary antibody solution (Alexafluor 488 conjugate anti-mouse IgG (LifeTechnologies #A21202) diluted 1:1000 and Hoechst 33342 1 μg/ml diluted in Antibody Dilution Buffer) were dispensed into each well. Samples were incubated for 2 hours at room temperature. Samples were washed 3 times with 100 μL/well of PBS using a Biotek EL406. Quantitative fluorescence imaging of ESR1 was carried out using a Cellomics Arrayscan V (Thermo). Fluorescence images of the samples (Channel 1: XF53 Hoechst (DNA stain); Channel 2: XF53 FITC (ESR1 stain)) were acquired using a Cellomics VTI Arrayscan using the Bioapplication “Compartmental Analysis” using the auto-exposure (based on DMSO control wells) setting “peak target percentile” set to 25% target saturation for both channels. Channel 1 (DNA stain) was used to define the nuclear region (Circ). Measurements of “Mean_CircAvgIntCh2”, which is the Alexafluor 488 fluorescence intensity (ESR1) within the nuclear region, was measured on a per cell basis and averaged over all the measured cells. Data analysis was carried out using Genedata Screener Software, with DMSO and 5 nM Fulvestrant treated samples being used to define the 0% and 100% changes in ESR1. The “Robust Fit” method was used to define the inflexion point of curve (EC50) and the plateau of the maximal effect (Sinf). Degradation data for exemplary Formula I compounds is reported as ER-alpha MCF7 HCS Sinf(%) values in Table 1.

MCF7 cells = assay: In vitro cell proliferation assays (Examples 902 and 903), MCF7; assay type: cell-based; conditions: read-out: ER-alpha MCF7 HCS (EC50)
Experimental: Efficacy of estrogen receptor modulator compounds and chemotherapeutic compounds are measured by a cell proliferation assay employing the following protocol (Mendoza et al (2002) Cancer Res. 62:5485-5488).
The CellTiter-Glo® Luminescent Cell Viability Assay is a homogeneous method to determine the number of viable cells in culture based on quantitation of the ATP present, which signals the presence of metabolically active cells. The CellTiter-Glo® Assay is designed for use with multiwell plate formats, making it ideal for automated high-throughput screening (HTS), cell proliferation and cytotoxicity assays. The homogeneous assay procedure involves adding a single reagent (CellTiter-Glo® Reagent) directly to cells cultured in serum-supplemented medium. Cell washing, removal of medium or multiple pipetting steps are not required. The Cell Titer-Glo® Luminescent Cell Viability Assay, including reagents and protocol are commercially available (Promega Corp., Madison, Wis., Technical Bulletin TB288).
The assay assesses the ability of compounds to enter cells and inhibit cell proliferation. The assay principle is based on the determination of the number of viable cells present by quantitating the ATP present in a homogenous assay where addition of the Cell TiterGlo® reagent results in cell lysis and generation of a luminescent signal through the luciferase reaction. The luminescent signal is proportional to the amount of ATP present.
Procedure: Day 1—Seed Cell Plates (384-well black, clear bottom, microclear, TC plates with lid from Falcon #353962), Harvest cells, Seed cells at 1000 cells per 54 μl per well into 384 well Cell Plates for 3 days assay. Cell Culture Medium: RPMI or DMEM high glucose, 10% Fetal Bovine Serum, 2 mM L-Glutamine, P/S. Incubate 0/N (overnight) at 37° C., 5% CO2.
Day 2—Add Drug to Cells, Compound Dilution, DMSO Plates (serial 1:2 for 9 points). Add 20 μl of compound at 10 mM in the 2nd column of 96 well plate. Perform serial 1:2 across the plate (10 μl+20 μl 100% DMSO) for a total of 9 points using Precision Media Plates 96-well conical bottom polypropylene plates from Nunc (cat.#249946) (1:50 dilution). Add 147 μl of Media into all wells. Transfer 3 μl of DMSO+compound from each well in the DMSO Plate to each corresponding well on Media Plate using Rapidplate® (Caliper, a Perkin-Elmer Co.). For 2 drug combination studies, transfer one drug 1.5 μl of DMSO+compound from each well in the DMSO Plate to each corresponding well on Media Plate using Rapidplate. Then, transfer another drug 1.5 μl to the medium plate.
Drug Addition to Cells, Cell Plate (1:10 dilution): Add 6 μl of media+compound directly to cells (54 μl of media on the cells already). Incubate 3 days at 37° C., 5% CO2 in an incubator that will not be opened often.
Day 5—Develop Plates, Thaw Cell Titer Glo Buffer at room temperature: Remove Cell Plates from 37° C. and equilibrate to room temperature for about 30 minutes. Add Cell Titer-Glo® Buffer to Cell Titer-Glo® Substrate (bottle to bottle). Add 30 μl Cell Titer-Glo® Reagent (Promega cat.# G7572) to each well of cells. Place on plate shaker for about 30 minutes. Read luminescence on Analyst HT Plate Reader (half second per well).
Cell viability assays and combination assays: Cells were seeded at 1000-2000 cells/well in 384-well plates for 16 h. On day two, nine serial 1:2 compound dilutions were made in DMSO in a 96 well plate. The compounds were further diluted into growth media using a Rapidplate® robot (Zymark Corp., Hopkinton, Mass.). The diluted compounds were then added to quadruplicate wells in 384-well cell plates and incubated at 37° C. and 5% CO2. After 4 days, relative numbers of viable cells were measured by luminescence using Cell Titer-Glo® (Promega) according to the manufacturer's instructions and read on a Wallac Multilabel Reader® (PerkinElmer, Foster City). EC50 values were calculated using Prism® 4.0 software (GraphPad, San Diego). […]

ER-alpha MCF7 HCS (S inf) [1] [%] | pEC50 (MCF7 cells; Homo sapiens, MCF7, Table 1a) | pEC50 (MCF7 cells; Table 1a) | Compound
−94.23 | 9.97 | – | C[C@@H]1Cc2c([nH]c3ccccc23)[C@@H](c2c(F)cc(C(O)C3CN(CCCF)C3)cc2F)N1C[C@@](C)(F)CO (stereo partly drawn) [Compound 107, (2R)-3-((1R,3R)-1-(2,6-difluoro-4-((1-(3-fluoropropyl)azetidin-3-yl)(hydroxy)methyl)phenyl)-3-methyl-1,3,4,9-tetrahydro-2H-pyrido[3,4-b]indol-2-yl)-2-fluoro-2-methylpropan-1-ol]
−96.34 | 10.25 | – | C[C@@H]1Cc2c([nH]c3ccccc23)[C@@H](c2c(F)cc(C(O)C3CN(CCCF)C3)cc2F)N1C[C@](C)(F)CO (stereo partly drawn) [Compound 108, (2S)-3-((1R,3R)-1-(2,6-difluoro-4-((1-(3-fluoropropyl)azetidin-3-yl)(hydroxy)methyl)phenyl)-3-methyl-1,3,4,9-tetrahydro-2H-pyrido[3,4-b]indol-2-yl)-2-fluoro-2-methylpropan-1-ol]
−98.1 | 9.64 | – | C[C@@H]1Cc2c([nH]c3ccccc23)[C@@H](c2c(F)cc(C(O)C3CN(CCCF)C3)cc2F)N1CC(F)(F)F (stereo partly drawn) [Compound 109, (3,5-difluoro-4-((1R,3R)-3-methyl-2-(2,2,2-trifluoroethyl)-2,3,4,9-tetrahydro-1H-pyrido[3,4-b]indol-1-yl)phenyl)(1-(3-fluoropropyl)azetidin-3-yl)methanol]
−98.4 | 10.09 | – | C[C@@H]1Cc2c([nH]c3ccccc23)[C@@H](c2c(F)cc(C(O)C3CN(CCCF)C3)cc2F)N1CC(F)F (stereo partly drawn) [Compound 110]
−95.97 | 10.18 | – | C[C@@H]1Cc2c([nH]c3ccccc23)[C@@H](c2c(F)cc([C@H](O)C3CN(CCCF)C3)cc2F)N1CC(C)(C)F [Compound 111, (R)-(3,5-difluoro-4-((1R,3R)-2-(2-fluoro-2-methylpropyl)-3-methyl-2,3,4,9-tetrahydro-1H-pyrido[3,4-b]indol-1-yl)phenyl)(1-(3-fluoropropyl)azetidin-3-yl)methanol]
−99.15 | 10.30 | – | C[C@@H]1Cc2c([nH]c3ccccc23)[C@@H](c2c(F)cc([C@@H](O)C3CN(CCCF)C3)cc2F)N1CC(C)(C)F [Compound 112, (S)-(3,5-difluoro-4-((1R,3R)-2-(2-fluoro-2-methylpropyl)-3-methyl-2,3,4,9-tetrahydro-1H-pyrido[3,4-b]indol-1-yl)phenyl)(1-(3-fluoropropyl)azetidin-3-yl)methanol]
−91.41 | – | 9.05 | C[C@@H]1Cc2c([nH]c3ccc(F)cc23)[C@@H](c2c(F)cc(C(O)C3CN(CCCF)C3)cc2F)N1CC(C)(F)CO (stereo partly drawn) [Compound 113, 3-((1R,3R)-1-(2,6-difluoro-4-((1-(3-fluoropropyl)azetidin-3-yl)(hydroxy)methyl)phenyl)-6-fluoro-3-methyl-1,3,4,9-tetrahydro-2H-pyrido[3,4-b]indol-2-yl)-2-fluoro-2-methylpropan-1-ol]
−98.7 | 10.51 | – | C[C@@H]1Cc2c([nH]c3ccccc23)[C@@H](c2ccc(C(O)C3CN(CCCF)C3)cc2F)N1CC(F)(F)CO (stereo partly drawn) [Compound 116, 2,2-difluoro-3-((1R,3R)-1-(2-fluoro-4-((1-(3-fluoropropyl)azetidin-3-yl)(hydroxy)methyl)phenyl)-3-methyl-1,3,4,9-tetrahydro-2H-pyrido[3,4-b]indol-2-yl)propan-1-ol]
−100 | 10.18 | – | C[C@@H]1Cc2c([nH]c3ccccc23)[C@@H](c2ccc(C(O)C3CN(CCCF)C3)cc2)N1CC(F)(F)CO (stereo partly drawn) [Compound 117, 2,2-difluoro-3-((1R,3R)-1-(4-((1-(3-fluoropropyl)azetidin-3-yl)(hydroxy)methyl)phenyl)-3-methyl-1,3,4,9-tetrahydro-2H-pyrido[3,4-b]indol-2-yl)propan-1-ol]
